From patent US20230075170A1, “NOVEL SALTS OF NILOTINIB AND POLYMORPHIC FORMS THEREOF” (CIPLA LIMITED, priority 2020, published 2023)

Tests used:
[1] = Stability towards moisture and humidity (statement only); assay type: physicochemical
[2] = Hygroscopicity (statement only); assay type: physicochemical
[3] = Solubility (statement only); assay type: physicochemical
[4] = Chemical stability on storage (temperature and relative humidity)
Description: Conditions evaluated include temperature and relative humidity (RH).

[5] = 25 ± 2° C./60 ± 5% RH, 0 months
[6] = 25 ± 2° C./60 ± 5% RH, 2 months
[7] = 25 ± 2° C./60 ± 5% RH, 3 months

In the case of Nilotinib D-malate, the “stability towards moisture and humidity” value [1] is reported as “relatively stable”, the hygroscopicity [2] is reported as “not hygroscopic” and the “solubility in physiologically acceptable solvents” value [3] is reported as “readily soluble”.
With Nilotinib D-tartrate the “stability towards moisture and humidity” value [1] was “relatively stable”, the hygroscopicity [2] was “not hygroscopic” and the “5- methyl isomer impurity (NMT 3 ppm)” value ([4]; 2 to 8° C., 0 months) was 0.6 ppm. The “Total impurities (NMT 0.4%)” value ([4]; 2 to 8° C., 0 months) was 0.01%, the XRPD ([4]; 2 to 8° C., 0 months) was “Form C1” and the “5- methyl isomer impurity (NMT 3 ppm)” value ([4]; 2 to 8° C., 1 month) was 0.5 ppm. For the same substance, the XRPD ([4]; 2 to 8° C., 1 month) was “Stable”, the “5- methyl isomer impurity (NMT 3 ppm)” value ([4]; 2 to 8° C., 2 months) was 0.7 ppm and the XRPD ([4]; 2 to 8° C., 2 months) was “Stable”. The “5- methyl isomer impurity (NMT 3 ppm)” value ([4]; 2 to 8° C., 3 months) was 1.1 ppm, the “Total impurities (NMT 0.4%)” value ([4]; 2 to 8° C., 3 months) was 0.05% and the XRPD ([4]; 2 to 8° C., 3 months) was “Stable”. The “5- methyl isomer impurity (NMT 3 ppm)” value [4, 5] was 0.6 ppm, the “Total impurities (NMT 0.4%)” value [4, 5] was 0.01% and the XRPD [4, 5] was “Form C1”. For the same substance, the “5- methyl isomer impurity (NMT 3 ppm)” value ([4]; 25 ± 2° C./60 ± 5% RH, 1 month) was 0.5 ppm, the XRPD ([4]; 25 ± 2° C./60 ± 5% RH, 1 month) was “Stable” and the “5- methyl isomer impurity (NMT 3 ppm)” value [4, 6] was 0.7 ppm. For the same substance, the XRPD [4, 6] was “Stable”, the “5- methyl isomer impurity (NMT 3 ppm)” value [4, 7] was 1.1 ppm and the “Total impurities (NMT 0.4%)” value [4, 7] was 0.04%. For the same substance, the XRPD [4, 7] was “Stable” and the “chemical stability / long term storage stability” value ([4]; temperature and relative humidity (RH)) was “chemically more stable”.
